Assay results published in US20050245533A1, “Inhibitors of the 11-beta-hydroxysteroid dehydrogenaseType 1 enzyme and their therapeutic application” (priority 2004, published 2005).

How the values were obtained:
male CD-1 mice = test: Mouse dehydrocorticosterone challenge model; type: in vivo; conditions: 100 mpk, followed by 11-DHC challenge, 30 min after challenge
Protocol: Male CD-1 (18-22 g) mice (Charles River, Madison, Wis.) were group housed and allowed free access to food and water. Mice are brought into a quiet procedure room for acclimation the night before the study. Animals are dosed with vehicle or compound at various times (pretreatment period) before being challenged with 11-dehydrocorticosterone (Steraloids Inc., Newport, R.I.). Thirty minutes after challenge, the mice are euthanized with CO2 and blood samples (EDTA) are obtained by cardiac puncture and immediately placed on ice. Blood samples were then spun, the plasma was removed, and the samples frozen until further analysis was performed. Corticosterone levels were obtained by ELISA (American Laboratory Prod., Co., Windham, N.H.) or HPLC/mass spectroscopy.

[1] = molecular target: T1, truncated human 11β-HSD-1 enzyme (24-287AA) (Homo sapiens, UniProt P28845); test: human 11β-HSD-1 enzymatic Scintillation Proximity Assay (SPA); type: biochemical
T1 construct: truncated human 11β-HSD-1 enzyme (24-287AA); made in house; host or cells: E. coli (lysate)
Protocol: The ability of test compounds to inhibit human 11-βHSD-1 enzymatic activity in vitro was evaluated in a Scintillation Proximity Assay (SPA). Tritiated-cortisone substrate, NADPH cofactor and titrated compound were incubated with truncated human 11β-HSD-1 enzyme (24-287AA) at room temperature to allow the conversion to cortisol to occur. The reaction was stopped by adding a non-specific 11β-HSD inhibitor, 18β-glycyrrhetinic acid. The tritiated cortisol generated was then captured by a mixture of an anti-cortisol monoclonal antibody and SPA beads coated with anti-mouse antibodies. The reaction plate was shaken at room temperature and the radioactivity bound to SPA beads was then measured on a β-scintillation counter. The 11-βHSD-1 assay was carried out in 96-well microtiter plates in a total volume of 220 μl. To start the assay, 188 μl of master mix which contains 17.5 nM ^3H-cortisone, 157.5 nM cortisone, and […] NADPH was added to the wells. In order to drive the reaction in the forward direction, 1 mM G-6-P was also added. […] After shaking for 30 minutes, plates were read on a liquid scintillation counter Topcount. Percent inhibition was calculated based on the background and the maximal signal. […] Percent of inhibition of each compound was calculated relative to the maximal signal and IC50 curves were generated. […]

ob/ob mice = test: ob/ob mouse model of type 2 diabetes; type: in vivo; conditions: three weeks
Protocol: Male B6.VLep^ob(−/−) (ob/ob) mice and their lean littermates (Jackson Laboratory, Bar Harbor, Me.) were group housed and allowed free access to food (Purina 5015) and water. Mice were 6-7 weeks old at the start of each study. On day 0, animals were weighed and postprandial glucose levels determined (Medisense Precision-X™ glucometer, Abbott Laboratories). […] Animals were weighed, and postprandial glucose measurements were taken weekly throughout the study. On the last day of the study, 16 hours post dose (unless otherwise noted) the mice were euthanized via CO2, and blood samples (EDTA) were taken by cardiac puncture and immediately placed on ice. Whole blood measurements for HbA1c were taken with hand held meters (A1c NOW, Metrika Inc., Sunnyvale Calif.). Blood samples were then spun and plasma was removed and frozen until further analysis. The plasma triglyceride levels were determined according to instructions by the manufacturer (Infinity kit, Sigma Diagnostics, St. Louis Mo.).

human 11-β-HSD-2 = molecular target: T2, human 11-β-HSD-2 (Homo sapiens, UniProt P80365); test: 11β-HSD-2 Scintillation Proximity Assay (tritiated cortisol, NAD+); type: biochemical; conditions: human enzyme, SPA
T2 sequence (P80365 1-405): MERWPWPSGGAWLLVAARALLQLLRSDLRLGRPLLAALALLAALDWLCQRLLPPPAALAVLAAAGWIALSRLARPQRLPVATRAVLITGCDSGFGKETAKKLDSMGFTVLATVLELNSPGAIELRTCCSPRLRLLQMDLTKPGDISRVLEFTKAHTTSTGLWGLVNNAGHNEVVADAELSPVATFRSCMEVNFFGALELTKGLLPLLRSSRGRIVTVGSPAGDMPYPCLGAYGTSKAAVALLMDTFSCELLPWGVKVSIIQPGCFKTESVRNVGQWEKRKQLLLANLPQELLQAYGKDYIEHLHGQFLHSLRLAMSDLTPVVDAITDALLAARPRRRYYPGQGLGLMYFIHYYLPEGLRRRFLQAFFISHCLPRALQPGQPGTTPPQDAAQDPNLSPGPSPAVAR

T1 sequence (P28845 24-287): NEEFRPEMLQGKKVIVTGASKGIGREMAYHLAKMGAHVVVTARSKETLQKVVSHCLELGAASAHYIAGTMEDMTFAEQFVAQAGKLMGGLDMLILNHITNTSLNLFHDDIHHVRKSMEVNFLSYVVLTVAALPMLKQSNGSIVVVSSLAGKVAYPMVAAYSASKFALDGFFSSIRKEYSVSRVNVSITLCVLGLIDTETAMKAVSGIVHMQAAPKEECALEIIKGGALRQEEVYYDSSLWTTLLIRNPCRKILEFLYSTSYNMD

SMILES: CC(C(=O)NC1C2CC3CC(C2)CC1C3)N1CCC(O)CC1 (stereo not shown) [Compound C, N-2-Adamantyl-2-(4-hydroxypiperidin-1-yl)propanamide]
- Plasma corticosterone level (male CD-1 mice; pretreatment period 0.5 hours): 203 ± 19
- Plasma corticosterone level (male CD-1 mice; pretreatment period 5 hours): 382 ± 40
- IC50 [1]: 34 nM
- % HbA1c (ob/ob mice; 30 mpk twice daily): 7.4 ± 0.7%
- Plasma glucose (ob/ob mice; 30 mpk twice daily): 227 ± 17 mg/dL
- Plasma triglycerides (ob/ob mice; 30 mpk twice daily): 288 ± 26 mg/dL
- % HbA1c (ob/ob mice; 100 mpk twice daily): 5.7 ± 0.3%
- Plasma glucose (ob/ob mice; 100 mpk twice daily): 186 ± 18 mg/dL
- Plasma triglycerides (ob/ob mice; 100 mpk twice daily): 323 ± 34 mg/dL
- IC50 (human 11-β-HSD-2): > 10000 nM
